Measurements: patent publication US20230416232A1, “PYRIMIDINE COMPOUNDS, COMPOSITIONS, AND MEDICINAL APPLICATIONS THEREOF” (Blueprint Medicines Corporation, priority 2020, published 2023)

What was measured:
Assay type in all cases: cell-based
[1] = target: HER2 (A775_G776insYVMA) expressing Ba/F3 stable cell line (Homo sapiens, UniProt P04626, DUP772-775, cells depend on it); test: Cellular proliferation (Alamar Blue) assay, HER2 (A775_G776insYVMA) Ba/F3; details: HER2 (A775_G776insYVMA) Ba/F3 cells; 72 hr; Alamar Blue; read-out: YVMA IC50
Sequence of HER2 (A775_G776insYVMA) expressing Ba/F3 stable cell line (P04626 with tags, fused parts or gaps DUP772-775): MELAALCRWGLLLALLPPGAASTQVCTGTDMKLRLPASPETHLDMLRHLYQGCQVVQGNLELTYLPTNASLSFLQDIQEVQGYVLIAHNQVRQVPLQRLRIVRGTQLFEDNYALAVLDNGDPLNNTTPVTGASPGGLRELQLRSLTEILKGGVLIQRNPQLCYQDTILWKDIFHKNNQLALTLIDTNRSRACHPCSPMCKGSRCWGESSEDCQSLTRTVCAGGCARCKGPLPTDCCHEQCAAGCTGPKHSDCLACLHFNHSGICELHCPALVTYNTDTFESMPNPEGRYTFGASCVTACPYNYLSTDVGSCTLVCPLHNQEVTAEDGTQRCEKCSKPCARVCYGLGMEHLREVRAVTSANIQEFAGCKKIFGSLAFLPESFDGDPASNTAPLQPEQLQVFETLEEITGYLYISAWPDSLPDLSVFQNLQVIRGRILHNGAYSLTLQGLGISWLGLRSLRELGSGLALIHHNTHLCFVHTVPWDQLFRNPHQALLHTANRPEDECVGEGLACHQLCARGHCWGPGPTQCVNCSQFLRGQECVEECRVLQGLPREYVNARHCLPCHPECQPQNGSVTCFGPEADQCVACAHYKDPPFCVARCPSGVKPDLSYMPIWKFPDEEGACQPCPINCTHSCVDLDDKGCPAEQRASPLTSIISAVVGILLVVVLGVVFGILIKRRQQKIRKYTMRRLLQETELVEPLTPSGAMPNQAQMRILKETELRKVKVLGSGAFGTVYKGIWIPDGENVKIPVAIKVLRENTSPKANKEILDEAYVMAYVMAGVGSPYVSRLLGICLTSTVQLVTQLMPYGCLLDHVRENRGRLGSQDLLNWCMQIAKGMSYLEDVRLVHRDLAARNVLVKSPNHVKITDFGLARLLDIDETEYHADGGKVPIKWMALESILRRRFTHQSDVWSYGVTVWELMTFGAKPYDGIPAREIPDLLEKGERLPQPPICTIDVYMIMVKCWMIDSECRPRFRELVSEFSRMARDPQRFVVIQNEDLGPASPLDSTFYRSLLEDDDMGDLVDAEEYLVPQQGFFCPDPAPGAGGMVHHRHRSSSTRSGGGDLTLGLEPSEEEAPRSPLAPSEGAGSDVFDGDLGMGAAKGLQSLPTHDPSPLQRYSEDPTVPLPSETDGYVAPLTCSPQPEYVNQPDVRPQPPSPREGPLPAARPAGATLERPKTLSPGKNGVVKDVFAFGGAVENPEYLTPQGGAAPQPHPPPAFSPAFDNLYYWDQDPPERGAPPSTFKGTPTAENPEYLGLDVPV
Protocol: (§1) Cell line details: • 1. EGFR(D770_N771insSVD) expressing Ba/F3 stable cell line • 2. EGFR (A767_dupASV) expressing Ba/F3 stable cell line • 3. A431 cells • 4. EGFR (H773insNPH) expressing Ba/F3 stable cell line • 5. HER2 (A775_G776insYVMA) expressing Ba/F3 stable cell line
(§2) • 1. Seed cells at 5000 for A431 and 15,000 cells for Ba/F3 in 100 μL/well in complete media (for A431: DMEM with 10% FBS and for Ba/F3 cells: RPMI with 10% FBS) in 96-well tissue culture plate. Leave outer wells without cells for background measurements. Incubate at 37 degree Celsius in 5% CO2 humidified incubator for 16-18 hours. • 2. Add 0.025 ml of 5X concentration compound dilution or DMSO control. Final compound concentration range is 10-0.0005 μM prepared in 3-fold serial dilutions. Incubate for 72 hr at 37 degree Celsius in 5% CO2 humidified incubator. • 3. Add 0.0125 ml Alamar Blue™ reagent to each well with multi-channel pipette and tap gently on each side of the plate to mix. Incubate for 3 hours at 37 degree Celsius in 5% CO2 humidified incubator. • 4. […] Data analysis was performed using XLfit 5.5.0.5.

A431 cells = test: Cellular proliferation (Alamar Blue) assay, A431 cells; details: Homo sapiens, A-431, 72 h, A431 cells; 72 hr; Alamar Blue; read-out: A431 IC50
Protocol: as §2

[2] = target: EGFR (A767_dupASV) expressing Ba/F3 stable cell line (Homo sapiens, UniProt P00533, DUP767-769, cells depend on it); test: Cellular proliferation (Alamar Blue) assay, EGFR (A767_dupASV) Ba/F3; details: 72 hr, read-out: A767 IC50
Sequence of EGFR (A767_dupASV) expressing Ba/F3 stable cell line (P00533 with tags, fused parts or gaps DUP767-769): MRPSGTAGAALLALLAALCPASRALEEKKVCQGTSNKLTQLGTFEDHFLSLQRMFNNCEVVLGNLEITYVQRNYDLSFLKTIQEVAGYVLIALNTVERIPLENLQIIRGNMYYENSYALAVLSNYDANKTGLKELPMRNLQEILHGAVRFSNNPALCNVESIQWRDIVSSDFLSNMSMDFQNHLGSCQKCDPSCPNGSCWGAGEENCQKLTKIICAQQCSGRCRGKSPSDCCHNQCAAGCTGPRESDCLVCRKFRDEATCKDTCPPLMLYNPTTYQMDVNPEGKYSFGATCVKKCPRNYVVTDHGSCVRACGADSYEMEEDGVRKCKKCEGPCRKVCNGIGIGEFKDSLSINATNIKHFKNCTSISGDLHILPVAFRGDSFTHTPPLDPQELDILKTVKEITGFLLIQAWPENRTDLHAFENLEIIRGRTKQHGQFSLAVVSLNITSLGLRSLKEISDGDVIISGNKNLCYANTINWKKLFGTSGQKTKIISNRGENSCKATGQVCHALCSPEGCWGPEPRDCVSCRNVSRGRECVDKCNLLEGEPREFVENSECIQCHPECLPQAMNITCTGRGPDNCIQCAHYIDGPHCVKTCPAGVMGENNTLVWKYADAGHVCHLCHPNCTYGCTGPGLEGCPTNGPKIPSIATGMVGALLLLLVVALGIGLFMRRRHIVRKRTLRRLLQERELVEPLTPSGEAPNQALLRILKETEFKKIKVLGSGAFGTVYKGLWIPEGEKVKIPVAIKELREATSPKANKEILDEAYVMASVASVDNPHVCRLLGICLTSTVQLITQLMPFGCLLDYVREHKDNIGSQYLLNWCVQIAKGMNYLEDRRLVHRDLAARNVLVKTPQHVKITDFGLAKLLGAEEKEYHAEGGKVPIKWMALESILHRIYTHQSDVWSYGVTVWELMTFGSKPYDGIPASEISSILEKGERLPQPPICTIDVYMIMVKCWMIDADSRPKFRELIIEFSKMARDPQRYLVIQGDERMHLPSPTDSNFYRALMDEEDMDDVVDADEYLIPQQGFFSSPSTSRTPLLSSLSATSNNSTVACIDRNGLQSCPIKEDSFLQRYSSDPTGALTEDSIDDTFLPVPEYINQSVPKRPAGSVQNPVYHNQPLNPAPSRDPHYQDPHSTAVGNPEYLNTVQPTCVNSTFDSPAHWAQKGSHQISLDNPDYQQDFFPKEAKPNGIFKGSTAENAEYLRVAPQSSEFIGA
Protocol: as §1, §2

[3] = target: EGFR(D770_N771insSVD) expressing Ba/F3 stable cell line (Homo sapiens, UniProt P00533, DUP768-770, cells depend on it); test: Cellular proliferation (Alamar Blue) assay, EGFR(D770_N771insSVD) Ba/F3; details: 72 hr, read-out: D770 IC50
Sequence of EGFR(D770_N771insSVD) expressing Ba/F3 stable cell line (P00533 with tags, fused parts or gaps DUP768-770): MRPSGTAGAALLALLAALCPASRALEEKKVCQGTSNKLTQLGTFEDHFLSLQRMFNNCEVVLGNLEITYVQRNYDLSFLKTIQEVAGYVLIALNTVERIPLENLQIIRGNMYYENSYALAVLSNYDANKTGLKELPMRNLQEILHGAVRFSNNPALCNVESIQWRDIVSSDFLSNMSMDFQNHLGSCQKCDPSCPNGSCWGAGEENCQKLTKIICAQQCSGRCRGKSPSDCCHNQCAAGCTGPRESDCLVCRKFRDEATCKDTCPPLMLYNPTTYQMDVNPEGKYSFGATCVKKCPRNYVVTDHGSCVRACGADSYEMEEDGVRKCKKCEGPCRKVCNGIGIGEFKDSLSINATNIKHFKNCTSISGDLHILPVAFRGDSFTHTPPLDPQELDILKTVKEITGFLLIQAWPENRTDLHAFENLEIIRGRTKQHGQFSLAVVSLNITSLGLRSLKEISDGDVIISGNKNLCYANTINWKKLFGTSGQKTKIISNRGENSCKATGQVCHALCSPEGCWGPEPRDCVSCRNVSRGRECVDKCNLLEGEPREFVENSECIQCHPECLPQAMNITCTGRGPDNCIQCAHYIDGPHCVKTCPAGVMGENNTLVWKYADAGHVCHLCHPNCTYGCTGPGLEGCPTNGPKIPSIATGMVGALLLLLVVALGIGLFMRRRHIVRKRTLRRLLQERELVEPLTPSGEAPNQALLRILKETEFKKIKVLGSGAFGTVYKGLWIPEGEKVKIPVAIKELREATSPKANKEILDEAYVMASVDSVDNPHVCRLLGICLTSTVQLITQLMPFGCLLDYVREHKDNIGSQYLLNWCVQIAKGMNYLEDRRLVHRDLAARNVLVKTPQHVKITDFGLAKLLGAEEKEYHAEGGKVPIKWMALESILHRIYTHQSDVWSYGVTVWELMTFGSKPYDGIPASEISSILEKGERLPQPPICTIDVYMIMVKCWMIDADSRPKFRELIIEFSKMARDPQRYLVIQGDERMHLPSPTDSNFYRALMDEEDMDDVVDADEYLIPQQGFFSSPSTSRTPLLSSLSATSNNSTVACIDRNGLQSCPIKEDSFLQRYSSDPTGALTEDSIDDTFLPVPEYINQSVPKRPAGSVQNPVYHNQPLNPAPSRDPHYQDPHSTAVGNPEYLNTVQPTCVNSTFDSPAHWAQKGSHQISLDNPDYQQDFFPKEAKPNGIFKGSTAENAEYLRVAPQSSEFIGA
Protocol: as §1, §2

In the case of `Cn1cc(Nc2ncc(-c3ccc(Br)c(F)c3)c(Nc3cc(NC(=O)/C=C/CF)ccc3F)n2)cn1` [Compound 175, (E)-N-(3-((5-(4-bromo-3-fluorophenyl)-2-((1-methyl-1H-pyrazol-4-yl)amino)pyrimidin-4-yl)amino)-4-fluorophenyl)-4-fluorobut-2-enamide], the GI50 [1] is reported as 1620 nM, the IC50 (A431 cells) is reported as 347 nM and the GI50 [2] is reported as 224 nM. The GI50 [3] was 136 nM.
For `C=CC(=O)Nc1ccc(F)c(Nc2nc(Nc3cnn(CCOC)c3)ncc2-c2ccc(Br)c(F)c2)c1` [Compound 95, N-(3-((5-(4-bromo-3-fluorophenyl)-2-((1-(2-methoxyethyl)-1H-pyrazol-4-yl)amino)pyrimidin-4-yl)amino)-4-fluorophenyl)acrylamide], the GI50 [1] was 197 nM, the IC50 (A431 cells) was 4770 nM and the GI50 [2] was 43 nM. The GI50 [3] was 29 nM.
`Cn1cc(Nc2ncc(-c3ccc(Br)c(F)c3)c(Nc3cc(NC(=O)/C=C/CN4CCC4)ccc3F)n2)cn1` [Compound 166, (E)-4-(azetidin-1-yl)-N-(3-((5-(4-bromo-3-fluorophenyl)-2-((1-methyl-1H-pyrazol-4-yl)amino)pyrimidin-4-yl)amino)-4-fluorophenyl)but-2-enamide] showed a GI50 [1] of 555 nM, an IC50 (A431 cells) of 613 nM and a GI50 [2] of 299 nM. The GI50 [3] was 75 nM.
For `C=CC(=O)Nc1ccc(F)c(Nc2nc(Nc3cnn(C)c3)ncc2-c2cc(F)cc(OC(F)(F)F)c2)c1` [Compound 172, N-(4-fluoro-3-((5-(3-fluoro-5-(trifluoromethoxy)phenyl)-2-((1-methyl-1H-pyrazol-4-yl)amino)pyrimidin-4-yl)amino)phenyl)acrylamide], the GI50 [1] was 5980 nM, the IC50 (A431 cells) was 585 nM and the GI50 [2] was 967 nM. It also gave a GI50 [3] of 843 nM.
In the case of `C=CC(=O)Nc1ccc(F)c(Nc2nc(Nc3cnn(C)c3)ncc2-c2cc(F)c(F)c(F)c2)c1` [Compound 149, N-(4-fluoro-3-((2-((1-methyl-1H-pyrazol-4-yl)amino)-5-(3,4,5-trifluorophenyl)pyrimidin-4-yl)amino)phenyl)acrylamide], the GI50 [1] is reported as 92 nM, the IC50 (A431 cells) is reported as 11 nM and the GI50 [2] is reported as 34 nM. For the same compound, the GI50 [3] was 11 nM.
`[2H]C([2H])([2H])Oc1cc(F)cc(-c2cnc(Nc3cnn(C)c3)nc2Nc2cc(NC(=O)C=C)ccc2F)c1` [Compound 165, N-(4-fluoro-3-((5-(3-fluoro-5-(methoxy-d3)phenyl)-2-((1-methyl-1H-pyrazol-4-yl)amino)pyrimidin-4-yl)amino)phenyl)acrylamide] showed a GI50 [1] of 208 nM, an IC50 (A431 cells) of 387 nM and a GI50 [2] of 110 nM. For the same compound, the GI50 [3] was 70 nM.
In the case of `C=CC(=O)Nc1ccc(F)c(Nc2nc(Nc3cnn(C4CCOC4)c3)ncc2-c2ccc(Br)c(F)c2)c1` (stereo not drawn) [Compound 93, N-(3-((5-(4-bromo-3-fluorophenyl)-2-((1-(tetrahydrofuran-3-yl)-1H-pyrazol-4-yl)amino)pyrimidin-4-yl)amino)-4-fluorophenyl)acrylamide], the GI50 [1] is reported as 173 nM, the IC50 (A431 cells) is reported as 33 nM and the GI50 [2] is reported as 46 nM. It also gave a GI50 [3] of 35 nM.
`C=CC(=O)Nc1ccc(F)c(Nc2nc(Nc3cnn(C)c3)ncc2-c2cc(OC)ccc2Cl)c1` [Compound 8, N-(3-((5-(2-chloro-5-methoxyphenyl)-2-((1-methyl-1H-pyrazol-4-yl)amino)pyrimidin-4-yl)amino)-4-fluorophenyl)acrylamide] was tested, and the GI50 [1] was 644 nM, the IC50 (A431 cells) was > 10000 nM and the GI50 [2] was 749 nM. For the same compound, the GI50 [3] was 1590 nM.
`C=CC(=O)Nc1ccc(F)c(Nc2nc(Nc3cnn(C)c3)ncc2-c2cnc(Cl)c(C(F)(F)F)c2)c1` [Compound 44, N-(3-((5-(6-chloro-5-(trifluoromethyl)pyridin-3-yl)-2-((1-methyl-1H-pyrazol-4-yl)amino)pyrimidin-4-yl)amino)-4-fluorophenyl)acrylamidet] gave a GI50 [1] of 36 nM, an IC50 (A431 cells) of 52 nM and a GI50 [2] of 15 nM. For the same compound, the GI50 [3] was 24 nM.
With `C=CC(=O)Nc1ccc(F)c(Nc2nc(Nc3cnn(C)c3)ncc2-c2cc(F)c(F)c(OC(F)F)c2)c1` [Compound 160, N-(3-((5-(3-(difluoromethoxy)-4,5-difluorophenyl)-2-((1-methyl-1H-pyrazol-4-yl)amino)pyrimidin-4-yl)amino)-4-fluorophenyl)acrylamide] the GI50 [1] was 163 nM, the IC50 (A431 cells) was 261 nM and the GI50 [2] was 63 nM. It also gave a GI50 [3] of 68 nM.
`C=CC(=O)Nc1cc(Cl)cc(Nc2nc(Nc3cnn(C)c3)ncc2-c2ccc(Br)c(F)c2)c1` [Compound 159, N-(3-((5-(4-bromo-3-fluorophenyl)-2-((1-methyl-1H-pyrazol-4-yl)amino)pyrimidin-4-yl)amino)-5-chlorophenyl)acrylamide] was tested, and the GI50 [1] was 125 nM, the IC50 (A431 cells) was 23 nM and the GI50 [2] was 29 nM. For the same compound, the GI50 [3] was 24 nM.
Work on `C=CC(=O)Nc1ccc(F)c(Nc2nc(Nc3cn(C)nc3Cl)ncc2-c2cc(F)cc(C(F)F)c2)c1` [Compound 108, N-(3-((2-((3-chloro-1-methyl-1H-pyrazol-4-yl)amino)-5-(3-(difluoromethyl)-5-fluorophenyl)pyrimidin-4-yl)amino)-4-fluorophenyl)acrylamide] yielded a GI50 [1] of 243 nM, an IC50 (A431 cells) of 23 nM and a GI50 [2] of 96 nM. The GI50 [3] was 39 nM.
`C=CC(=O)Nc1cccc(Nc2nc(Nc3cnn(C)c3)ncc2-c2cc(F)c(Br)c(Cl)c2)c1` [Compound 154, N-(3-((5-(4-bromo-3-chloro-5-fluorophenyl)-2-((1-methyl-1H-pyrazol-4-yl)amino)pyrimidin-4-yl)amino)phenyl)acrylamide] showed a GI50 [1] of 154 nM, an IC50 (A431 cells) of 1760 nM and a GI50 [2] of 81 nM. The GI50 [3] was 34 nM.
In the case of `C=CC(=O)Nc1ccc(F)c(Nc2nc(Nc3cn(C)nc3Cl)ncc2-c2cc(F)cc(F)c2)c1` [Compound 104, N-(3-((2-((3-chloro-1-methyl-1H-pyrazol-4-yl)amino)-5-(3,5-difluorophenyl)pyrimidin-4-yl)amino)-4-fluorophenyl)acrylamide], the GI50 [1] is reported as 64 nM, the IC50 (A431 cells) is reported as 17 nM and the GI50 [2] is reported as 44 nM. For the same compound, the GI50 [3] was 34 nM.
`C=CC(=O)Nc1cccc(Nc2nc(Nc3cnn(C)c3)ncc2-c2cc(F)cc(OC)c2)c1` [Compound 127, N-(3-((5-(3-fluoro-5-methoxyphenyl)-2-((1-methyl-1H-pyrazol-4-yl)amino)pyrimidin-4-yl)amino)phenyl)acrylamide] showed a GI50 [1] of 167 nM, an IC50 (A431 cells) of 123 nM and a GI50 [2] of 312 nM. It also gave a GI50 [3] of 89 nM.
With `C=CC(=O)Nc1cc(Br)cc(Nc2nc(Nc3cnn(C)c3)ncc2-c2cc(F)cc(Cl)c2)c1` [Compound 173, N-(3-bromo-5-((5-(3-chloro-5-fluorophenyl)-2-((1-methyl-1H-pyrazol-4-yl)amino)pyrimidin-4-yl)amino)phenyl)acrylamide] the GI50 [1] was 1520 nM, the IC50 (A431 cells) was 776 nM and the GI50 [2] was 311 nM. The GI50 [3] was 101 nM.
`C=CC(=O)Nc1ccc(F)c(Nc2nc(Nc3cnn(C)c3)ncc2-c2cc(C(F)F)cc(C(F)F)c2)c1` [Compound 155, N-(3-((5-(3,5-bis(difluoromethyl)phenyl)-2-((1-methyl-1H-pyrazol-4-yl)amino)pyrimidin-4-yl)amino)-4-fluorophenyl)acrylamide] was tested, and the GI50 [1] was 1670 nM, the IC50 (A431 cells) was 338 nM and the GI50 [2] was 133 nM. It also gave a GI50 [3] of 107 nM.
`C=CC(=O)Nc1ccc(F)c(Nc2nc(Nc3cnn(C)c3)ncc2-c2cccc(Br)c2F)c1` [Compound 113, N-(3-((5-(3-bromo-2-fluorophenyl)-2-((1-methyl-1H-pyrazol-4-yl)amino)pyrimidin-4-yl)amino)-4-fluorophenyl)acrylamide] gave a GI50 [1] of 463 nM, an IC50 (A431 cells) of 73 nM and a GI50 [2] of 92 nM. The GI50 [3] was 70 nM.
`C=CC(=O)Nc1ccc(F)c(Nc2nc(Nc3cnn(C)c3)ncc2-c2cc(F)c(Br)c(F)c2)c1` [Compound 91, N-(3-((5-(4-bromo-3,5-difluorophenyl)-2-((1-methyl-1H-pyrazol-4-yl)amino)pyrimidin-4-yl)amino)-4-fluorophenyl)acrylamide] was tested, and the GI50 [1] was 59 nM, the IC50 (A431 cells) was 11 nM and the GI50 [2] was 31 nM. For the same compound, the GI50 [3] was 15 nM.
`C=CC(=O)Nc1cc(F)cc(Nc2nc(Nc3cnn(C)c3)ncc2-c2cc(F)c(Br)c(Cl)c2)c1` [Compound 163, N-(3-((5-(4-bromo-3-chloro-5-fluorophenyl)-2-((1-methyl-1H-pyrazol-4-yl)amino)pyrimidin-4-yl)amino)-5-fluorophenyl)acrylamide] gave a GI50 [1] of 104 nM, an IC50 (A431 cells) of 128 nM and a GI50 [2] of 22 nM. For the same compound, the GI50 [3] was 26 nM.
For `C=CC(=O)Nc1ccc(F)c(Nc2nc(Nc3cnn(C)c3)ncc2-c2ccc3c(c2)OCC3)c1` [Compound 162, N-(3-((5-(2,3-dihydrobenzofuran-6-yl)-2-((1-methyl-1H-pyrazol-4-yl)amino)pyrimidin-4-yl)amino)-4-fluorophenyl)acrylamide], the GI50 [1] was 428 nM, the IC50 (A431 cells) was 84 nM and the GI50 [2] was 116 nM. For the same compound, the GI50 [3] was 38 nM.
